Data published in patent US8865731B2, “Inhibitor of analgesic tolerance” (Kyowa Hakko Kirin Co., Ltd., priority 2008, dated 2014).

What was measured:
[1] = system: Male ddY mice; assay: Suppressing activity on morphine analgesic tolerance (hot plate method, response latency); format: in vivo; settings: for ΔChange (Latency at each time point − Pre value) 0.5 h: day 7, 0.5 h; for ΔChange (Latency at each time point − Pre value) 1 h: day 7, 1 h; for ΔChange (Latency at each time point − Pre value) 2 h: day 7, 2 h
[2] = system: Male ddY mice; assay: Suppressing activity on oxycodone analgesic tolerance (hot plate method, response latency); settings: for Latency (sec) Pre value (before drug administration on last day) / ΔChange (Latency at each time point − Pre value) 0.5 h / ΔChange (Latency at each time point − Pre value) 1 h / ΔChange (Latency at each time point − Pre value) 2 h: Table 6
[3] = Table 5, compound 30 mg/kg p.o. repeatedly administered alone
[4] = Table 5, repeated combination group: compound 30 mg/kg p.o. 30 min before each morphine 6 mg/kg s.c., 7 days
[5] = Test Example 6, compound 30 mg/kg p.o. 30 min before each morphine 6 mg/kg s.c., 7 days
[6] = Test Example 6, compound 30 mg/kg p.o. repeatedly administered alone
[7] = Table 4, Compound (VIA) 30 mg/kg p.o. repeatedly administered alone
[8] = Table 4, repeated combination group: Compound (VIA) 30 mg/kg p.o. 30 min before each morphine 6 mg/kg s.c., 7 days
[9] = Table 1, Compound (IIIB) 3 mg/kg p.o. repeatedly administered alone
[10] = Table 1, repeated combination group: Compound (IIIB) 3 mg/kg p.o. 30 min before each morphine 6 mg/kg s.c., 7 days
[11] = Table 4, Compound (VII) 60 mg/kg p.o. repeatedly administered alone
[12] = Table 4, repeated combination group: Compound (VII) 60 mg/kg p.o. 30 min before each morphine 6 mg/kg s.c., 7 days
[13] = Table 4, Compound (IIA) 100 mg/kg p.o. repeatedly administered alone
[14] = Table 4, repeated combination group: Compound (IIA) 100 mg/kg p.o. 30 min before each morphine 6 mg/kg s.c., 7 days
[15] = Table 2, Compound (IIIC) 1 mg/kg p.o. repeatedly administered alone
[16] = Table 2, repeated combination group: Compound (IIIC) 1 mg/kg p.o. 30 min before each morphine 6 mg/kg s.c., 7 days

Compound: Cc1cc(Cn2nnc3c(-c4ccco4)nc(N)nc32)ccc1N [Compound (VIII)]
- ΔChange (Latency at each time point − Pre value) 0.5 h [1, 3]: −0.5 ± 0.9 ^ sec
- ΔChange (Latency at each time point − Pre value) 1 h [1, 3]: 0.1 ± 0.9 s
- ΔChange (Latency at each time point − Pre value) 2 h [1, 3]: -1.1 ± 1.1 s
- ΔChange (Latency at each time point − Pre value) 0.5 h [1, 4]: 13.6 ± 1.6 s
- ΔChange (Latency at each time point − Pre value) 1 h [1, 4]: 7.8 ± 0.8 s
- ΔChange (Latency at each time point − Pre value) 2 h [1, 4]: 1.1 ± 0.8 s
- development of analgesic tolerance (response latency) [1, 5]: the development of analgesic tolerance was prevented
- effect on the response latency [1, 6]: the effect on the response latency was not observed

Compound: CCCCc1nc(N)c2nc(-n3nccn3)n(C)c2n1 [Compound (VIA)]
- ΔChange (Latency at each time point − Pre value) 0.5 h [1, 7]: -0.8 ± 1.3 s
- ΔChange (Latency at each time point − Pre value) 1 h [1, 7]: 0.2 ± 2.1 s
- ΔChange (Latency at each time point − Pre value) 2 h [1, 7]: -0.2 ± 1.1 s
- ΔChange (Latency at each time point − Pre value) 0.5 h [1, 8]: 13.0 ± 2.4 s
- ΔChange (Latency at each time point − Pre value) 1 h [1, 8]: 7.6 ± 1.7 s
- ΔChange (Latency at each time point − Pre value) 2 h [1, 8]: 1.9 ± 1.3 s
- development of analgesic tolerance (response latency) ([1]; Test Example 5, Compound (VIA) 30 mg/kg p.o. 30 min before each morphine 6 mg/kg s.c., 7 days): the development of analgesic tolerance was prevented
- effect on the response latency ([1]; Test Example 5, Compound (VIA) 30 mg/kg p.o. repeatedly administered alone): the effect on the response latency was not observed

Compound: Cc1ncc(C(=O)Nc2nc(-c3ccco3)c(C(=O)C3CCOCC3)s2)cn1 [Compound (IIIB)]
- ΔChange (Latency at each time point − Pre value) 0.5 h [1, 9]: 0.1 ± 0.5 s
- ΔChange (Latency at each time point − Pre value) 1 h [1, 9]: −0.1 ± 0.4 ^ sec
- ΔChange (Latency at each time point − Pre value) 2 h [1, 9]: 0.4 ± 1.2 s
- ΔChange (Latency at each time point − Pre value) 0.5 h [1, 10]: 18.2 ± 1.2 s
- ΔChange (Latency at each time point − Pre value) 1 h [1, 10]: 13.5 ± 0.8 s
- ΔChange (Latency at each time point − Pre value) 2 h [1, 10]: 4.8 ± 0.7 s
- development of analgesic tolerance (response latency) ([1]; Test Example 3, Compound (IIIB) 3 mg/kg p.o. 30 min before each morphine 6 mg/kg s.c., 7 days): the development of analgesic tolerance was prevented
- effect on the response latency ([1]; Test Example 3, Compound (IIIB) 3 mg/kg p.o. repeatedly administered alone): the effect on the response latency was not observed

Compound: COCCOc1ccc(N2CCN(CCn3ncc4c3nc(N)n3nc(-c5ccco5)nc43)CC2)cc1 [Compound (IVA)]
- ΔChange (Latency at each time point − Pre value) 0.5 h [1, 3]: 0.5 ± 0.6 s
- ΔChange (Latency at each time point − Pre value) 1 h [1, 3]: −0.4 ± 1.0 ^ sec
- ΔChange (Latency at each time point − Pre value) 2 h [1, 3]: -0.5 ± 1.4 s
- ΔChange (Latency at each time point − Pre value) 0.5 h [1, 4]: 14.9 ± 1.6 s
- ΔChange (Latency at each time point − Pre value) 1 h [1, 4]: 8.3 ± 0.4 s
- ΔChange (Latency at each time point − Pre value) 2 h [1, 4]: 0.7 ± 1.1 s
- development of analgesic tolerance (response latency) [1, 5]: the development of analgesic tolerance was prevented
- effect on the response latency [1, 6]: the effect on the response latency was not observed

Compound: Cc1nc(-c2sc(NC(=O)C3CC3)nc2-c2ccccc2)no1 [Compound (VII)]
- ΔChange (Latency at each time point − Pre value) 0.5 h [1, 11]: -0.8 ± 1.0 s
- ΔChange (Latency at each time point − Pre value) 1 h [1, 11]: -0.7 ± 1.0 s
- ΔChange (Latency at each time point − Pre value) 2 h [1, 11]: 0.0 ± 0.6 s
- ΔChange (Latency at each time point − Pre value) 0.5 h [1, 12]: 12.8 ± 2.1 s
- ΔChange (Latency at each time point − Pre value) 1 h [1, 12]: 7.8 ± 1.3 s
- ΔChange (Latency at each time point − Pre value) 2 h [1, 12]: 1.8 ± 0.8 s
- development of analgesic tolerance (response latency) ([1]; Test Example 5, Compound (VII) 60 mg/kg p.o. 30 min before each morphine 6 mg/kg s.c., 7 days): the development of analgesic tolerance was prevented
- effect on the response latency ([1]; Test Example 5, Compound (VII) 60 mg/kg p.o. repeatedly administered alone): the effect on the response latency was not observed

Compound: COc1ccc2c3c1O[C@H]1C(=O)CC[C@@]4(O)[C@@H](C2)N(C)CC[C@]314 [oxycodone, reference compound]
- Latency (sec) Pre value (before drug administration on last day) ([2]; repeated oxycodone administration group: oxycodone 20 mg/kg p.o. twice a day, 4 days, day 4): 12.4 ± 1.1 s
- ΔChange (Latency at each time point − Pre value) 0.5 h ([2]; repeated oxycodone administration group: oxycodone 20 mg/kg p.o. twice a day, 4 days, day 4, 0.5 h): 5.9 ± 3.4 s
- ΔChange (Latency at each time point − Pre value) 1 h ([2]; repeated oxycodone administration group: oxycodone 20 mg/kg p.o. twice a day, 4 days, day 4, 1 h): 2.7 ± 2.3 s
- ΔChange (Latency at each time point − Pre value) 2 h ([2]; repeated oxycodone administration group: oxycodone 20 mg/kg p.o. twice a day, 4 days, day 4, 2 h): 0.1 ± 1.3 s
- Latency (sec) Pre value (before drug administration on last day) ([2]; single oxycodone administration group: distilled water twice a day 3 days, oxycodone 20 mg/kg p.o. only on day 4): 11.7 ± 1.0 s
- ΔChange (Latency at each time point − Pre value) 0.5 h ([2]; single oxycodone administration group: oxycodone 20 mg/kg p.o. only on day 4, 0.5 h): 17.5 ± 4.2 s
- ΔChange (Latency at each time point − Pre value) 1 h ([2]; single oxycodone administration group: oxycodone 20 mg/kg p.o. only on day 4, 1 h): 11.8 ± 2.0 s
- ΔChange (Latency at each time point − Pre value) 2 h ([2]; single oxycodone administration group: oxycodone 20 mg/kg p.o. only on day 4, 2 h): 6.9 ± 2.4 s
- development of analgesic tolerance (response latency) ([2]; Test Example 7, oxycodone 20 mg/kg p.o. repeatedly for 4 days vs single oxycodone administration group): the development of analgesic tolerance was observed

Compound: CC(C)(O)CCN1CCN(c2cc3nc(-c4ccco4)nn3c(N)n2)CC1 [Compound (IIA)]
- ΔChange (Latency at each time point − Pre value) 0.5 h [1, 13]: 1.2 ± 1.5 s
- ΔChange (Latency at each time point − Pre value) 1 h [1, 13]: 1.7 ± 1.4 s
- ΔChange (Latency at each time point − Pre value) 2 h [1, 13]: 0.9 ± 1.1 s
- ΔChange (Latency at each time point − Pre value) 0.5 h [1, 14]: 12.8 ± 1.9 s
- ΔChange (Latency at each time point − Pre value) 1 h [1, 14]: 6.4 ± 1.7 s
- ΔChange (Latency at each time point − Pre value) 2 h [1, 14]: 2.4 ± 1.2 s
- development of analgesic tolerance (response latency) ([1]; Test Example 5, Compound (IIA) 100 mg/kg p.o. 30 min before each morphine 6 mg/kg s.c., 7 days): the development of analgesic tolerance was prevented
- effect on the response latency ([1]; Test Example 5, Compound (IIA) 100 mg/kg p.o. repeatedly administered alone): the effect on the response latency was not observed

Compound: Cc1ccc(C(=O)Nc2nc(-c3ccco3)c(C(=O)C3CCOCC3)s2)cn1 [Compound (IIIC)]
- ΔChange (Latency at each time point − Pre value) 0.5 h [1, 15]: −2.2 ± 1.3^ sec
- ΔChange (Latency at each time point − Pre value) 1 h [1, 15]: -1.0 ± 0.7 s
- ΔChange (Latency at each time point − Pre value) 2 h [1, 15]: -1.0 ± 0.9 s
- ΔChange (Latency at each time point − Pre value) 0.5 h [1, 16]: 16.1 ± 2.4 s
- ΔChange (Latency at each time point − Pre value) 1 h [1, 16]: 9.3 ± 1.6 s
- ΔChange (Latency at each time point − Pre value) 2 h [1, 16]: 1.9 ± 0.9 s
- development of analgesic tolerance (response latency) ([1]; Test Example 3, Compound (IIIC) 1 mg/kg p.o. 30 min before each morphine 6 mg/kg s.c., 7 days): the development of analgesic tolerance was prevented
- effect on the response latency ([1]; Test Example 3, Compound (IIIC) 1 mg/kg p.o. repeatedly administered alone): the effect on the response latency was not observed
